The record followed here is patent US20120122931A1, “INDOLE DERIVATIVE OR PHARMACEUTICALLY ACCEPTABLE SALT THEREOF” (KISSEI PHARMACEUTICAL CO., LTD., priority 2009, published 2012).

In test [1] the target is T1, rat EP1 receptor (Rattus norvegicus, UniProt P70597).
T1 construct: expressed in transfected cells; host or cells: COS-1 cells, transient transfection with Lipofectamine 2000
T1 sequence (P70597 1-405): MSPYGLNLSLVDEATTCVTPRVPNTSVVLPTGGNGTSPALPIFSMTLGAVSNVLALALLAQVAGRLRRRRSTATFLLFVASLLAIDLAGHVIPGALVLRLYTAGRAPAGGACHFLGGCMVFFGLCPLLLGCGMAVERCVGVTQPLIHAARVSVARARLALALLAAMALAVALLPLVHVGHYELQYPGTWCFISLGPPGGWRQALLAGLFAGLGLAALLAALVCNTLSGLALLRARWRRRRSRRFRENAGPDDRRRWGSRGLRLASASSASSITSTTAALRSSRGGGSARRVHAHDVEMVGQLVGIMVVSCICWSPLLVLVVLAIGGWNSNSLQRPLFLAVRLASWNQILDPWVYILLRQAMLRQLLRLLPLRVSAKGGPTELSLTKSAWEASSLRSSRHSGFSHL
Description: Test for confirmation of EP1 receptor antagonism: inhibition of prostaglandin E2-induced increase in intracellular calcium concentration (Method A or Method B). The class given is cell-based. The conditions noted are these: Method A (Fluo-4 NW, FlexStation); rat EP1 receptor-expressing cells; prostaglandin E2 10 nM. In a few lines: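 Rat EP1 (NM_013100-matching clone) transiently expressed in COS-1 cells via Lipofectamine 2000, 200 ng vector/well, transfected about 2 h after seeding at 5×10^4 cells/well. Cells cultured at 37° C, 5% CO2.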
In general terms: A change in cytosolic calcium serves as a functional read-out for many receptors and channels.

Test [2] has as its system sulprostone-induced bladder contraction. The experiment in a line: Inhibitory effect of compound on sulprostone-induced bladder contraction. It is filed as in vivo. The conditions noted are these: test agent 1.0 mg/kg intravenously, sulprostone 0.3 mg/kg subcutaneously, female SD rats. How it is done: Female SD rats were used. Under urethane anesthesia (1.25 g/kg, administered subcutaneously), a tracheal cannula (Size 8, HIBIKI) and a femoral vein cannula for administration (23G needle-equipped PESO) were inserted thereinto. The bladder cannula (PESO) was inserted from the bladder apex. The bladder cannula was connected to a three-way stopcock, and then, one was connected to a pressure transducer and the other was connected to a syringe filled with saline. Saline was injected to the bladder at an injection rate of 3.6 mL/hour and the bladder contraction pressure was recorded at the time of injection with a recorder (RECTI-HORITZ-8K, NEC Corporation). After 10 minutes from stabilization of the bladder contraction pressure during urination, sulprostone was administered subcutaneously (0.3 mg/kg). Then, at the time point when the bladder contraction pressure became constant, a test agent was administered intravenously (1.0 mg/kg). An average bladder contraction pressure during the 10 minutes period before administration of sulprostone was taken as a baseline (0%). Further, an average bladder contraction pressure during the 10 minutes period before administration of the test agent was taken as a maximum bladder contraction pressure (100%). […] The ratio of this measured value to the maximum bladder contraction pressure was calculated by the following equation and taken as an average bladder contraction rate after administration of the test agent: (Average Bladder Contraction Rate after Administration of Test Agent (%))=(Average Bladder Contraction Pressure after Administration of Test Agent)/(Maximum Bladder Contraction Pressure). In addition, the difference between the maximum bladder contraction rate (100%) and the average bladder contraction rate (%) after administration of the test agent was calculated by the following equation and taken as a bladder contraction inhibition rate of the test agent: (Bladder Contraction Inhibition Rate)=100%−(Average Bladder Contraction Rate after Administration of Test Agent (%)).

One may read the IC50 as the point on the concentration scale where inhibition reaches its midpoint. `COc1ccc2c(Cc3cccc(C(=O)O)n3)c(-c3csc(C)c3)[nH]c2c1` [Example 11-20, 6-[6-methoxy-2-(5-methylthiophen-3-yl)-1H-indol-3-ylmethyl]pyridine-2-carboxylic acid]: in test [1], the IC50 worked out at 26 nM. Further, the “Bladder Contraction Inhibition Rate (%) 15 Minutes” value in test [2] (15 minutes) turned out to be 81.4%. In addition, the “Bladder Contraction Inhibition Rate (%)” value in test [2] stood at 82.9%.
